Data from US12173039B1, “TPL2 inhibiting agents, uses thereof, and detection of TPL2” (Washington University, priority 2021, dated 2024).
Entries after “also recorded” stand apart in the source; their conditions may differ.

Columns and labels:
[1] = patients with refractory hematologic malignancies; cited from earlier work
IL1B = experiment: qRT-PCR of IL1B in HEK T/tH KRAS^G12V cells; assay type: cell-based, human; conditions: 16 hours
Procedure: Total RNA was isolated using RNAzol RT (Sigma), cDNA was generated using High Capacity cDNA reverse transcription kit (Thermo Fisher Scientific, 4368814) and qPCR was performed using SYBR-Green reagent (Applied Biosystems, cat #4309155). All experiments were performed in biological duplicates or triplicates (n=2,3).

[2] = tested on: serum-response element (SRE); experiment: Serum-response element (SRE) luciferase reporter assay; assay type: cell-based, human; conditions: for SRE reporter activity (MAPK cascades): KRAS-mutant HPAC, MIA Paca-2, and Pa01C cells
Procedure: (§1) Cells stably expressing plasmid encoding serum-response-element (SRE) or NFKB promoter driven Firefly luciferase and constitutive Renilla luciferase were seeded at equal density per well and treatment was initiated the next day for 16-24 duration. Alternatively, 293T reporter cells were transfected in duplicate or triplicate with 1 μg of appropriate plasmid DNA. Medium was replaced 16-18 hours later and at 48 hours post-transfection reporter activity was measured using Dual-Glo® Luciferase Assay System. Data was acquired using SpectraMax i3Microplate Reader and analysis was performed by calculating ratio of firefly:renilla. Values were normalized to control and graphed using GraphPad Prism v7/8 software.

Hs695T cells [3] = experiment: Drug response and viability assay, Hs695T; assay type: cell-based, human
Procedure: Cells were seeded at 1500-2500 cells per well in triplicates, in 96 well format. Next day, appropriate inhibitor was added in serial dilution from 1.00×102 μM or indicated single doses. Vehicle (DMSO) was added to match volume of inhibitor used for highest concentration. After 96-120 hours, 5× AlamarBlue® reagent (resazurin sodium salt, Sigma) was added to wells and incubated for 2-4 hours. Fluorescence at 585 nm (excitation 555 nm) was measured by SpectraMax i3 Microplate Reader. Raw values were normalized to vehicle, analyzed and graphed using GraphPad Prism v7/8 software.

p-MEK, p-ERK, and p-RSK = experiment: Immunoblots of MAPK pathway markers in human cell lines; assay type: cell-based; conditions: for p-MEK and p-ERK levels: serum-free
Procedure: (§2) Standard immunoblotting procedure was followed. Cells were washed twice with ice-cold 1×PBS and lysed with ice-cold triton-X lysis buffer (25 mM Tris, pH 7.4, 150 mM NaCl, 5 mM EDTA, 1% Triton-X) containing 1× protease (10 μg mL-1 leupeptin, 700 ng mL-1 pepstatin, 170 ng mL-1 aprotinin, 1 mM PMSF) and phosphatase (10 mM NaF, 1 mM Na3VO4, 1 mM Na4P2O^7, 5 mM Na b-glycerophosphate) inhibitors. Lysates were quantified by Bradford assay (Thermo Scientific), normalized for concentration, and reduced and denatured with 6×SDS sample buffer followed by boiling for 5 minutes. 20-40 μg of protein per sample was resolved by SDS-PAGE, blotted on PVDF membrane and probed with primary antibodies (Cell Signaling Technologies: p-ERK1/2 (#4370), p-MEK1/2 (#9154), ERK1/2 (#4695), MEK1/2 (#8727), p-p105 (#4806), NFS2KB1 p105/p50 (#3035), p-IRAK4 (#11927), IRAK4 (#4363), ubiquitin (#43124), anti-HA (#3724), p-p90RSK (#11989), RSK1/2/3 (#9355), p-TPL2 (#4491), PARP (#9532), p-B-RAF S445 (#2696), BRAF (#9433S). Santa Cruz Biotechnology: GAPDH (#sc-32233), p-p65 S536 (#sc101752). Thermo Fisher Scientific: p-55 TPL2 (#PA5-36635). EMD Millipore: IRAK4 (#07-418). R&D systems: TPL2/MAP3K8 (#MAB4586). Novus Biologicals: anti-AU1 (#NB600-453). Abcam: p-p65 S276 (#ab194726)). Membranes were incubated with appropriate HRP-conjugated secondary antibodies (anti-mouse or anti-rabbit, (1:5000 dilution), Jackson Laboratory) and imaged using chemiluminescent substrate. Additional steps for immunoprecipitation include incubation of soluble fraction lysate with anti-HA magnetic beads (Thermo Scientific cat #88837) overnight at 4° C., washing, and elution using 1×SDS sample buffer and boiling as mentioned in manufacturer's protocol.

p-p105, p-p65 = experiment: Immunoblots of NF-κB markers in PDAC cells; assay type: cell-based, human
Procedure: as §2

[4] = tested on: TLR9 and p-IRAK4 interaction; experiment: Proximity ligation assay (PLA); assay type: cell-based, human; conditions: 3 PDAC lines; 10 μM, 16 hours
Procedure: PLA was performed using Duolink® in situ Red Starter Kit Mouse/Rabbit (DUO92101, Sigma) per manufacturer's protocol. Briefly, cells were seeded on cover slips in 6 well plate at ˜50% confluency per well. Next day cells were treated with SN-38 (10 μM) and 16 hours later PLA was performed using p-IRAK4 (ABNOVA) and TLR9 (CST) primary antibodies. Stained cells were imaged using Nikon C2+ fluorescent microscope paired with NIS-Element software. Number of puncta per field was quantitated for six 400× fields per condition using Find Maxima tool in ImageJ software. Data was exported and graphed in GraphPad Prism v8.

NF-κB reporter activity = experiment: NF-κB luciferase reporter assay; assay type: cell-based, human; conditions: KRAS-mutant PDAC cells (PANC-1); serial dilutions from 20 μM; 18 hours
Procedure: as §1

orthotopic KI tumors = experiment: Orthotopic implantation of murine KI PDAC cells; assay type: in vivo; conditions: KI tumors in syngeneic FVB/NJ mice; 30 mg/kg, 14 days
Procedure: For subcutaneous xenograft, approximately 5 million cells per flank were implanted into 6-week-old athymic nude mice (NU/J, Jackson Laboratory). When applicable, treatment with drug compound was initiated when tumors were palpable. FIRINOX (25 mg/kg 5-FU, 17.5 mg/kg irinotecan, and 3.35 mg/kg oxaliplatin) was administered via intraperitoneal injection weekly in 50 μL PBS. TPL2i was administered by intraperitoneal injection at 10 mg/kg in 40 μL DMSO, 5 days per week. Mice in the control group were treated with vehicle. Tumor volume was calculated as width^2×(length×0.5). Tumors were measured and mice were weighed 3 days per week. For orthotopic implantation, murine KI PDAC cells were injected into the pancreas of 7-week-old female FVB/NJ mice (Jackson Laboratory), as previously described (see e.g., Kim et al. (2009) Nat Protoc. 4 (11): 1670-1680). Six days after implantation, treatment with vehicle, FIRINOX (same dose as above), or TPL2i (30 mg/kg) was initiated for 14 days, at which time all mice were sacrificed. In vivo tumor progression was monitored using ultrasound (VScan, GE Healthcare) with final day representative tumor images shown.

[5] = tested on: HPNE-KRAS^G12D cells, HEKT/tH-KRAS^G12V cells, conventional PDAC lines, and PDCLs; experiment: Anchorage independent soft agar growth assay, human KRAS-mutant lines; assay type: cell-based; conditions: HPNE-KRAS^G12D, HEKT/tH-KRAS^G12V, conventional PDAC lines, PDCLs
Procedure: Cells were seeded at 5000-15000 cells in 0.3% noble agar-DMEM suspension per well, in triplicate, in 24 well plate. For drug treatment, compound was added to cell suspension at 1× concentration. Seeded cells were fed with fresh 0.6% agar-DMEM mix once every 7-12 days. […] After 3-6 weeks, colonies were counted under microscope and imaged. Colony count was normalized to control and graphed in GraphPad Prism v7/8.

[6] = tested on: poly (ADP-ribose) polymerase (PARP); experiment: Immunoblot of PARP cleavage; assay type: cell-based, human; conditions: PDAC lines; cotreatment with SN-38, 16 hours
Procedure: as §2, with “Membranes were incubated with appropriate HRP-conjugated secondary antibodies (anti-mouse or anti-rabbit, (1:5000 dilution), Jackson Laboratory) and imaged using chemiluminescent substrate. Additional steps for immunoprecipitation include incubation of soluble fraction lysate with anti-HA magnetic beads (Thermo Scientific cat #88837) overnight at 4° C., washing, and elution using 1×SDS sample buffer and boiling as mentioned in manufacturer's protocol.” left out

Hs695T cells [7] = experiment: Cell proliferation assay, Hs695T; assay type: cell-based, human
Procedure: (§3) Cells were seeded in triplicate or quadruplicate at indicated density per well. When applicable, appropriate drug compound was added to cells the next day. Viable cells were counted using trypan blue dye exclusion and BioRad TC20 Automated Cell Counter at each time point.

KRAS mutant cell lines = experiment: Clonogenic 2D assay, KRAS-mutant and PDAC lines; assay type: cell-based, human; conditions: HPNE-KRAS^G12D, HEKT/tH-KRAS^G12V, conventional PDAC lines, PDCLs
Procedure: (§4) Cells were seeded at 500-1000 cells per well (6 well plate format) or 200-1000 cells per well (12 well format) in 10% serum media. For drug treatment, compound was added at time of seeding at indicated concentration. Media was replenished as needed over course of incubation. After 3-5 weeks, colonies were fixed with 4% formaldehyde, stained with 0.5% crystal violet and scanned using document scanner. Images were quantified using particle analyzer on ImageJ software and values were normalized to vehicle.

IGROV1 cells [8] = experiment: Cell proliferation assay, IGROV1; assay type: cell-based, human
Procedure: as §3

IGROV1 cells [9] = experiment: Clonogenic 2D assay, IGROV1; assay type: cell-based, human
Procedure: as §4

[10] = tested on: LPS-induced TNF-α production; conditions: human monocytes; cited from earlier work
[11] = HPAC cells, 16 hours, 10% serum

Cc1cc(-c2nc(C(=O)Nc3cc4oc(N5CCOCC5)nc4nc3N3CC[C@@H](O)C3)co2)ccn1 [CA-4948, N-[5-[(3R)-3-hydroxypyrrolidin-1-yl]-2-morpholin-4-yl-[1,3]oxazolo[4,5-b]pyridin-6-yl]-2-(2-methylpyridin-4-yl)-1,3-oxazole-4-carboxamide]
patients developing grade 1-2 neutropenia [1]: 23%
tolerability in clinical trial [1]: rather well tolerated

CS(=O)(=O)N1CCN(Cc2cc3nc(-c4cccc5[nH]ncc45)nc(N4CCOCC4)c3s2)CC1 [GDC-0941]
IL-1B production (IL1B expression by qRT-PCR) (IL1B): no effect

O=C(Nc1cc(C(F)(F)F)cc(C(F)(F)F)c1)c1cc(Cl)ccc1O [IMD-0354]
SRE-driven luciferase reporter activity ([2]; HPAC cells): dose-dependent suppression

CCCS(=O)(=O)Nc1ccc(F)c(C(=O)c2c[nH]c3ncc(-c4ccc(Cl)cc4)cc23)c1F [PLX4032]
viability (Hs695T cells [3]): modest growth suppressive effect

CCCS(=O)(=O)Nc1ccc(F)c(C(=O)c2c[nH]c3ncc(Cl)cc23)c1F [PLX-4720]
SRE reporter activity (MAPK cascades) [2]: paradoxically hyperactivate

CCc1c2c(nc3ccc(O)cc13)-c1cc3c(c(=O)n1C2)COC(=O)[C@]3(O)CC [SN-38]
induction of p-ERK, p-MEK, p-RSK, p-TPL2 and p-IRAK4 (p-MEK, p-ERK, and p-RSK; multiple PDAC lines, 10 μM, 16 hours, compared with 4 other chemotherapeutic agents): most potent in inducing
NF-κB induction (p-p105) (p-p105, p-p65; PDAC lines after chemotherapy): also induced
TLR9 and p-IRAK4 interaction [4]: markedly increased

N#Cc1cnc2cnc(NCc3cccnc3)cc2c1Nc1ccc(F)c(Cl)c1 [TPL2i, 4-[(3-Chloro-4-fluorophenyl)amino]-6-[(3-pyridinylmethyl)amino]-1,7-naphthyridine-3-carbonitrile]
Gemcitabine-induced SRE activity [2, 11]: suppressible
SRE reporter activity (MAPK cascades) [2]: dose-dependently suppressed
NF-κB reporter activity (NF-κB reporter activity): dose-dependently suppressed
growth of orthotopic tumors (orthotopic KI tumors): effective in significantly suppressing growth
3-dimensional (3D) AI growth [5]: dose-dependently suppressed
p-MEK and p-ERK levels (p-MEK, p-ERK, and p-RSK; 293T cells expressing KRAS^G12V, 24 hours): dose-dependently suppressed
p-MEK and p-ERK (p-MEK, p-ERK, and p-RSK; 293T cells transfected with oncogenic BRAF^V600E, 24 hours): neither TPL2i nor IRAK4i suppressed
p-MEK and p-ERK / MAPK activity (p-MEK, p-ERK, and p-RSK; BxPc-3 PDAC line (BRAF mutation, WT KRAS)): neither TPL2i nor IRAK4i suppressed and not
conditioned medium-induced p-TPL2, p-IRAK4, p-MEK, and p-ERK levels (p-MEK, p-ERK, and p-RSK; HEK T/tH cells with CM from HEK-T/tH KRAS^G12V cells): completely blocked
Gemcitabine-induced p-MEK and p-ERK levels (p-MEK, p-ERK, and p-RSK; [11]): suppressible
p-ERK and p-MEK / MAPK activity (p-MEK, p-ERK, and p-RSK; Hs695T cells (BRAF^V600E, MAP3K8^E188K), 24 hours, 10% serum): significantly suppressed
p-MEK, p-ERK, and p-RSK / MAPK activity (p-MEK, p-ERK, and p-RSK; IGROV1 (MAP3K8^R442H), 1 μM, 2 hours): completely blocked; also recorded: completely abolished
SN-38-induced p-MEK, p-ERK, and p-RSK (p-MEK, p-ERK, and p-RSK; PDAC lines, cotreatment, 16 hours): significantly attenuated
p-BRAF (p-MEK, p-ERK, and p-RSK; Pa01C cells, incremental doses): without affecting
p-MEK and p-ERK (p-MEK, p-ERK, and p-RSK; Pa01C cells, incremental doses): dose-dependently blocked
p-MEK and p-ERK levels (p-MEK, p-ERK, and p-RSK; multiple KRAS-mutant PDAC lines, 36 hours): dose-dependently suppressed
PARP cleavage [6]: increased
in vitro proliferation (Hs695T cells [7]): significantly suppressed
2D clonogenic growth (KRAS mutant cell lines): dose-dependently suppressed
viability (Hs695T cells [3]): suppressed
proliferation (IGROV1 cells [8]): significantly decreased
p-p65 at S276 (p-p105, p-p65; 3 out of 4 cell lines): potently suppressed
p50 processing (p-p105, p-p65; PDAC cell lines): did not lead to increased p50 processing
p-p65 at S536 (p-p105, p-p65; PDAC cell lines): not
p-p105 (p-p105, p-p65; PDAC cell lines, TPL2 inhibition): dose-dependently suppressed
p-p105 in SN-38-treated cells (p-p105, p-p65; Pa01C cells): additionally suppressed
colony forming ability (IGROV1 cells [9]): significantly decreased
LPS-induced TNF-α production [10]: can suppress

CC(C)(C)c1nc(-c2cccc(NS(=O)(=O)c3c(F)cccc3F)c2F)c(-c2ccnc(N)n2)s1 [dabrafenib]
SRE reporter activity (MAPK cascades) [2]: paradoxically hyperactivate

CC(C)Nc1cc(-c2c[nH]c(C(=O)N[C@H](CO)c3cccc(Cl)c3)c2)c(Cl)cn1 [ulixertinib]
IL-1B production (IL1B expression by qRT-PCR) (IL1B): significantly abrogated

recombinant hIL-1B: recombinant human IL-1B
p-IRAK4, p-TPL2, p-MEK, p-ERK, and p-RSK (p-MEK, p-ERK, and p-RSK; HEK T/H, HPAC, and Pa01C cells, 100 ng/ml): upregulated
